# According to patent publication US9758495B2, “Heteroaryl acid morpholinone compounds as MDM2 inhibitors for the treatment of cancer” (AMGEN INC., priority 2013, dated 2017):
# Biological target: GST-hMDM2 (aa 1-188) / biotinylated-p53 (aa 1-83) (Homo sapiens (Human), UniProt Q00987)
# Experiment: Homogenous Time-Resolved Fluorescence Assay (HTRF2 assay), inhibition of HDM2-p53 interaction
# Assay type: binding
# Settings: 0.2 nM GST-hMDM2 (1-188), 0.5 nM biotinylated-p53 (1-83), 0.18 nM SA-XLent, 100 mM KF
# Description: Residues 1-83 of human p53 were expressed as an amino-terminal AviTag™-TrxA-6×His fusion protein (biotinylated p53) in E. coli. Each protein was purified from cell paste by affinity chromatography.
# Specifically, 10 uL of GST-hMDM2 was incubated with 10 ul of diluted compound (various concentrations, serially diluted) in 10% DMSO for 20 minutes at room temperature. 20 uL of biotinylated-p53 was added to the GST-hMDM2+compound mixture, and then incubated at room temperature for 60 min. 10 uL of detection buffer consisting of SA-XLent, anti-GST cryptate antibody and KF was added to GST-hMDM2, biotinylated-p53 and compound reaction and left at room temperature to reach equilibrium for >4 hrs. The final concentration of DMSO in the reaction was 2%. Time-resolved fluorescence readings were measured on a microplate multilabel reader. Percentage of inhibition was calculated relative to nutlin-3.
# Sequence of GST-hMDM2 (aa 1-188) / biotinylated-p53 (aa 1-83) (Q00987 1-188): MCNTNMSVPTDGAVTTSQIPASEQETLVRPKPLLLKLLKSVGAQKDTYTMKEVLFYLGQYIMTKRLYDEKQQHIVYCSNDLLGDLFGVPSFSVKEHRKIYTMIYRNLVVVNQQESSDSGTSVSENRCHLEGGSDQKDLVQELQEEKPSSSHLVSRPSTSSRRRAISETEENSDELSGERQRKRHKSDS
row,SMILES,IC50 [nM]
1,"CC(C)(C)S(=O)(=O)C[C@H](C1CC1)N1C(=O)[C@](C)(Cc2ccc(C(=O)O)c[n+]2[O-])O[C@H](c2cccc(Cl)c2)[C@H]1c1ccc(Cl)cc1 (single isomer, unassigned) [Example 3, 2-(((2S,5R,6R)-4-((S)-2-(tert-Butylsulfonyl)-1-cyclopropylethyl)-6-(3-chlorophenyl)-5-(4-chlorophenyl)-2-methyl-3-oxomorpholin-2-yl)methyl)-5-carboxypyridine 1-oxide or 2-(((2R,5R,6R)-4-((S)-2-(tert-Butylsulfonyl)-1-cyclopropylethyl)-6-(3-chlorophenyl)-5-(4-chlorophenyl)-2-methyl-3-oxomorpholin-2-yl)methyl)-5-carboxypyridine 1-oxide]",0.23
2,"CC(C)(C)S(=O)(=O)C[C@H](C1CC1)N1C(=O)[C@@](C)(Cc2ccc(C(=O)O)c[n+]2[O-])O[C@H](c2cccc(Cl)c2)[C@H]1c1ccc(Cl)cc1 (single isomer, unassigned) [Example 4, 2-(((2R,5R,6R)-4-((S)-2-(tert-butylsulfonyl)-1-cyclopropylethyl)-6-(3-chlorophenyl)-5-(4-chlorophenyl)-2-methyl-3-oxomorpholin-2-yl)methyl)-5-carboxypyridine 1-oxide or 2-(((2S,5R,6R)-4-((S)-2-(tert-butylsulfonyl)-1-cyclopropylethyl)-6-(3-chlorophenyl)-5-(4-chlorophenyl)-2-methyl-3-oxomorpholin-2-yl)methyl)-5-carboxypyridine 1-oxide]",1.85
3,"CC(C)(C)S(=O)(=O)C[C@H](C1CC1)N1C(=O)[C@@](C)(Cc2ncc(C(=O)O)s2)O[C@H](c2cccc(Cl)c2)[C@H]1c1ccc(Cl)c(F)c1 (single isomer, unassigned) [Example 5, 2-(((2R,5R,6R)-4-((S)-2-(tert-Butylsulfonyl)-1-cyclopropylethyl)-5-(4-chloro-3-fluorophenyl)-6-(3-chlorophenyl)-2-methyl-3-oxomorpholin-2-yl)methyl)thiazole-5-carboxylic acid or 2-(((2S,5R,6R)-4-((S)-2-(tert-butylsulfonyl)-1-cyclopropylethyl)-5-(4-chloro-3-fluorophenyl)-6-(3-chlorophenyl)-2-methyl-3-oxomorpholin-2-yl)methyl)thiazole-5-carboxylic acid]",0.121
4,"CC(C)(C)S(=O)(=O)C[C@H](C1CC1)N1C(=O)[C@@](C)(Cc2ccc(C(=O)O)cn2)O[C@H](c2cccc(Cl)c2)[C@H]1c1ccc(Cl)c(F)c1 (single isomer, unassigned) [Example 6, 6-(((2R,5R,6R)-4-((S)-2-(tert-Butylsulfonyl)-1-cyclopropylethyl)-5-(4-chloro-3-fluorophenyl)-6-(3-chlorophenyl)-2-methyl-3-oxomorpholin-2-yl)methyl)nicotinic acid or 6-(((2S,5R,6R)-4-((S)-2-(tert-butylsulfonyl)-1-cyclopropylethyl)-5-(4-chloro-3-fluorophenyl)-6-(3-chlorophenyl)-2-methyl-3-oxomorpholin-2-yl)methyl)nicotinic acid]",0.11
5,"CC(C)(C)S(=O)(=O)C[C@H](C1CC1)N1C(=O)[C@@](C)(Cc2ccc(C(=O)O)cn2)O[C@H](c2cccc(Cl)c2)[C@H]1c1ccc(Cl)c(F)c1 (single isomer, unassigned) [Example 7, 6-(((2R,5R,6R)-4-((S)-2-(tert-butylsulfonyl)-1-cyclopropylethyl)-5-(4-chloro-3-fluorophenyl)-6-(3-chlorophenyl)-2-methyl-3-oxomorpholin-2-yl)methyl)nicotinic acid or 6-(((2S,5R,6R)-4-((S)-2-(tert-butylsulfonyl)-1-cyclopropylethyl)-5-(4-chloro-3-fluorophenyl)-6-(3-chlorophenyl)-2-methyl-3-oxomorpholin-2-yl)methyl)nicotinic acid]",< 0.1
